Measured values from PMC4026384, “Antibacterial Activity of THAM Trisphenylguanide against Methicillin-Resistant Staphylococcus aureus” (PLoS ONE, 2014).
Values after ≈ are worked out from the molar mass of the structure shown. “Also recorded” adds a separate entry of the source. Like-named read-outs stand apart in the source and are kept apart here.

Experiments:
[1] = test system: Acinetobacter baumannii ATCC BAA1605; experiment: Minimum inhibitory concentration (microdilution); type: cell-based; settings: ATCCBAA1605, A. baumannii ATCC BAA1605, LB media, median of at least 3 determinations
Method: (§1) Minimum inhibitory concentration (MIC) values were determined for those compounds showing the most antibacterial activity in the bacterial viability assays (see Supplemental Materials) against each of the strains of bacteria using a microdilution method in 96 well plates with LB media according to guidelines published by the British Society for Antimicrobial Chemotherapy. Minimum bactericidal concentrations (MBC) were determined by plating 10 µL and 100 µL from each well showing no signs of growth after overnight incubation of the MIC plates and determining the minimum concentration showing a 3-log reduction of viable bacteria. MIC and MBC were also determined in cation-adjusted Mueller-Hinton broth (Hardy Diagnostics, Santa Maria, CA) for some compounds and strains.

[2] = test system: Enterococcus faecalis ATCC V583; experiment: Minimum inhibitory concentration (microdilution); type: cell-based; settings: Enterococcus faecalis, ATCCV583; E. faecalis V583; LB media; median of at least 3 determinations; read-out: MIC
Method: as §1

[3] = test system: Enterococcus faecalis MSU#10; experiment: Minimum inhibitory concentration (microdilution); type: cell-based; settings: Enterococcus faecalis; E. faecalis MSU#10; LB media; median of at least 3 determinations; read-out: MIC
Method: as §1

[4] = test system: Escherichia coli (strain K91); experiment: Minimum inhibitory concentration (microdilution); type: cell-based; settings: E. coli K91
Method: as §1

[5] = test system: Pseudomonas aeruginosa (strain PA01); experiment: Minimum inhibitory concentration (microdilution); type: cell-based; settings: Pseudomonas aeruginosa; P. aeruginosa PA01; LB media; median of at least 3 determinations; read-out: MIC
Method: as §1

[6] = test system: Staphylococcus aureus RN4220; experiment: Minimum inhibitory concentration (microdilution); type: cell-based; settings: S. aureus RN4220
Method: as §1

[7] = test system: MRSA strain LAC, USA300; experiment: Minimum inhibitory concentration (microdilution); type: cell-based, Staphylococcus aureus
Method: as §1

[8] = test system: Escherichia coli (strain K91); experiment: Minimum bactericidal concentration; type: cell-based; settings: E. coli K91; MHB; median; 3-log reduction of viable bacteria
Method: as §1

[9] = test system: Staphylococcus aureus RN4220; experiment: Minimum bactericidal concentration; type: cell-based; settings: S. aureus RN4220; MHB; median; 3-log reduction of viable bacteria
Method: as §1

[10] = Cell toxicity assay (MTS); type: cell-based, human; settings: human, MTS assay, concentration which killed 50% of the cells
Method: The HaCaT cell line was grown in Epilife medium (MEPI500Ca) with human keratinocyte growth supplement (Invitrogen, San Diego, CA). Both types of cells were harvested using Tryspin/EDTA and diluted to 1×10^5 cells per well in a 96-well plate. Ten concentrations covering five orders of magnitude were tested with six replicates per concentration. […] MTS/PMS solution (Promega, Madison, WI) was added to the wells and absorbance was measured at 490 nm two to four hours later. Data was analyzed using GraphPad Prism version 5.0 (GraphPad Software, La Jolla, CA) using a variable slope inhibition dose response curve.

[11] = test system: E. coli K91; experiment: Bacterial viability assay; type: cell-based, Escherichia coli; settings: Escherichia coli, 1 h, one hour in PBS, CFU, ± SEM
Method: (§2) Supplementary file pone.0097742.s003.doc: Table S1 Bacterial viability assays. Bacteria were grown at 37°C to mid-log phase (OD600 ∼0.4). The bacteria were diluted to approximately 10^4 to 10^5 colony forming units (CFU) per milliliter and added to a solution of phosphate buffered saline (PBS, 16 mM phosphate, 0.14 M NaCl, pH 7.2) containing the compound at varied concentrations. Samples were incubated at 37°C for one hour and then plated on Luria Bertani (LB) agar at appropriate dilutions in PBS. The plates were incubated overnight at 37°C and colonies enumerated the following day. IC50s were calculated from graphs of CFU as a function of compound concentration. Chlorhexidine was used as a positive control. […] (DOC) Click here for additional data file.
(§3) Bacterial viability assays. Bacteria were grown at 37°C to mid-log phase (OD600 ~0.4). The bacteria were diluted to approximately 10^4 to 10^5 colony forming units (CFU) per milliliter and added to a solution of phosphate buffered saline (PBS, 16 mM phosphate, 0.14 M NaCl, pH 7.2) containing the compound at varied concentrations. Samples were incubated at 37°C for one hour and then plated on Luria Bertani (LB) agar at appropriate dilutions in PBS. The plates were incubated overnight at 37°C and colonies enumerated the following day. IC50s were calculated from graphs of CFU as a function of compound concentration. Chlorhexidine was used as a positive control.

[12] = test system: A. baumannii ATCC 19606; experiment: Bacterial viability assay; type: cell-based, Acinetobacter baumannii; settings: Acinetobacter baumannii, ATCC19606, 1 h, one hour in PBS, CFU, ± SEM
Method: as §2, §3

[13] = test system: A. baumannii ATCC BAA1605; experiment: Bacterial viability assay; type: cell-based, Acinetobacter baumannii; settings: Acinetobacter baumannii, ATCCBAA1605, 1 h, one hour in PBS, CFU, ± SEM
Method: as §2, §3

[14] = test system: MRSA; experiment: Time-to-kill (kill curve) assay; type: cell-based, Staphylococcus aureus
Method: (§4) Bacteria were cultured to mid-log phase (OD600 ∼0.4) in LB media with shaking and then diluted to approximately 10^4 to 10^5 CFU/mL. Bacteria were then treated with compound at the MIC, 2×MIC, and 4×MIC (as determined by the MIC assays). Over the course of 24 hours, bacteria were incubated at 37°C and aliquots removed at various time intervals, diluted, and plated on LB agar. Plated bacteria were incubated overnight at 37°C and CFU/mL were calculated for each time interval.

[15] = test system: E. coli; experiment: Time-to-kill (kill curve) assay; type: cell-based, Escherichia coli
Method: as §4

[16] = test system: MRSA; experiment: Cytoplasmic leakage & bacteriolysis assay; type: cell-based, Staphylococcus aureus; settings: for change in A260 of culture supernatant (cytoplasmic leakage): 4×MIC (8 mg/L), within the first 30 minutes, versus untreated controls; for number of viable cells (CFUs) during the leakage assay: over the 3 hour period
Method: Bacteria were cultured to mid-log phase (OD600 ∼0.4) in LB media with shaking. Bacteria were then harvested and resuspended in PBS to a concentration of ∼10^8 CFU/mL. […] Bacteria were monitored over time for cytoplasmic leakage via A260 measurements and for cell viability. For A260 readings, sample aliquots were centrifuged for 5 min at 10,000×g at room temperature to remove cellular debris. Viability was monitored by determining the CFU/mL during the first 3 hours post treatment as described above for the kill curve assays.

[17] = Escherichia coli, LB media, median of at least 3 determinations, read-out: MIC
[18] = Staphylococcus aureus, LB media, median of at least 3 determinations, read-out: MIC
[19] = Staphylococcus aureus, MRSA USA300, LB media, median of at least 3 determinations, read-out: MIC
[20] = MDA-MB-231 breast cancer cells (ATCC HTB-26), MDA-231

SMILES | MIC [1] [µg/mL] | MIC [2] [µg/mL] | MIC [3] [µg/mL] | MIC ([4]; MHB, median) [µg/mL] | MIC [4, 17] [µg/mL] | MIC [5] [µg/mL] | MIC ([6]; MHB, median) [µg/mL] | MIC [6, 18] [µg/mL] | MIC ([7]; MRSA USA300, MHB, median) [µg/mL] | MIC [7, 19] [µg/mL] | MBC [8] [µg/mL] | MBC [9] [µg/mL] | CC50 ([10]; HaCaT keratinocytes) [µg/mL] | CC50 [10, 20] [µg/mL] | IC50 [11] [µM] | IC50 [12] [µM] | IC50 [13] [µM] | further results
[H]/N=C(\N/C(=N/[H])NCCCCCCNC(=N)NC(=N)Nc1ccc(Cl)cc1)Nc1ccc(Cl)cc1 [Chlorhexidine, chlorhexidine, reference compound] | 16 (≈ 31.7 µM) | 6 (≈ 11.9 µM) | 4 (≈ 7.91 µM) | 0.44 (≈ 0.87 µM) | 1 (≈ 1.98 µM) | 8 (≈ 15.8 µM) | 0.89 (≈ 1.76 µM) | 1 (≈ 1.98 µM) | 0.67 (≈ 1.33 µM) | 1 (≈ 1.98 µM) | 0.44 (≈ 0.87 µM) | 0.89 (≈ 1.76 µM) | 1.9 (≈ 3.76 µM) | 2.6 (≈ 5.14 µM) | 1.7 ± 0.6 | 1.3 ± 0.2 | 0.78 ± 0.31 | time by which bactericidal activity was seen ([14]; 1× to 4×MIC): ≤ 24 h; time after which no viable cells remained ([15]; 2 mg/L): 6 h; reduction in CFU/mL ([15]; 2 mg/L, within 4 hours of treatment): > 3 log; change in A260 of culture supernatant (cytoplasmic leakage) [16]: immediate increase in A260; change in A260 of culture supernatant (cytoplasmic leakage) ([16]; listed as chlorhexidine): significant increase in A260; number of viable cells (CFUs) during the leakage assay [16]: no significant reductions in CFUs; number of viable cells (CFUs) during the leakage assay ([16]; listed as chlorhexidine): no significant reduction in CFUs
N=C(NCCCCCCNc1nc(NCCCCCCNC(=N)Nc2ccccc2)nc(NCCCCCCNC(=N)Nc2ccccc2)n1)Nc1ccccc1 [THAM-3ΦG, Trishexylaminomelamine trisphenylguanide] | > 256 | 256 (≈ 329 µM) | 32 (≈ 41.1 µM) | 8 (≈ 10.3 µM) | 8 (≈ 10.3 µM) | 48 (≈ 61.7 µM) | 1 (≈ 1.29 µM) | 2 (≈ 2.57 µM) | 1 (≈ 1.29 µM) | 2 (≈ 2.57 µM) | 16 (≈ 20.6 µM) | 2 (≈ 2.57 µM) | 14 (≈ 18 µM) | 7.6 (≈ 9.77 µM) | 3.8 ± 1.6 | 0.86 ± 0.25 | 4.3 ± 1 | MIC ([7]; Staphylococcus aureus, against MRSA, as stated in the abstract, read-out: MIC): ~1 µg/mL (≈ 1.29 µM); reduction in CFU/mL ([14]; 4×MIC, within 4 hours post treatment): 3 log; time after which no viable cells remained ([14]; at the MIC): 24 h; time to kill all the cells ([15]; 4×MIC (32 mg/L)): 24 h; reduction in CFU/mL ([15]; 4×MIC (32 mg/L), only after 4 hours of treatment): > 3 log; change in A260 of culture supernatant (cytoplasmic leakage) ([16]; listed as THAM-3ФG): significant increase in A260; also recorded: immediate increase in A260; number of viable cells (CFUs) during the leakage assay ([16]; listed as THAM-3ФG): no significant reductions in CFUs
